Columns and labels:
human full length PDE3B = human full length PDE3B (Homo sapiens (Human), UniProt Q13370); experiment: Assay 5 PDE3B enzyme inhibition (3H-cAMP SPA); assay type: biochemical; settings: Sf9 cell extract
Outline: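 Compounds in DMSO are mixed with diluted PDE3B extract from Sf9 cells, and reactions start on adding tritiated cAMP. After 60 min at room temperature, yttrium scintillation proximity beads terminate hydrolysis and signal is counted; IC50 values come from sigmoidal dose-response curves.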

human full length PDE3A = human full length PDE3A (Homo sapiens (Human), UniProt Q14432); experiment: Assay 4 PDE3A enzyme inhibition (3H-cAMP SPA); assay type: biochemical; settings: Sf9 cell extract
Outline: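 In this SPA format, the 60-min room-temperature reaction used 0.025 μCi [8-3H]cAMP and diluted full-length PDE3A from Sf9 cells. Percentage activity was plotted against log compound concentration to derive IC50.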

HeLa cells = experiment: Assay 1 cell proliferation measurement (CTG, 72 h), HeLa; assay type: cell-based, human; settings: Homo sapiens, HeLa; Assay 1, 72 h, Cell Titer Glo; read-out: HeLa IC50 [nM] (Cervical cancer)
Outline: (§1)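 CellTiter-Glo luminescence was read at treatment start (0 h plate) and after 72 h compound exposure at 37 °C. Doses were 2.5-fold steps, ten concentrations, top 100 nM final, 0.3% DMSO. Growth inhibition was scaled between 0 h and vehicle values, and IC50 was obtained by 4-parameter fitting.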

SK-MEL-3 cells = experiment: Assay 1 cell proliferation measurement (CTG, 72 h), SK-MEL-3; assay type: cell-based, human; settings: Homo sapiens, SK-MEL3; Assay 1, 72 h, Cell Titer Glo; read-out: SK-MEL-3 IC50 [nM] (melanoma)
Outline: as §1

human full length PDE3B, sequence (Q13370 whole entry): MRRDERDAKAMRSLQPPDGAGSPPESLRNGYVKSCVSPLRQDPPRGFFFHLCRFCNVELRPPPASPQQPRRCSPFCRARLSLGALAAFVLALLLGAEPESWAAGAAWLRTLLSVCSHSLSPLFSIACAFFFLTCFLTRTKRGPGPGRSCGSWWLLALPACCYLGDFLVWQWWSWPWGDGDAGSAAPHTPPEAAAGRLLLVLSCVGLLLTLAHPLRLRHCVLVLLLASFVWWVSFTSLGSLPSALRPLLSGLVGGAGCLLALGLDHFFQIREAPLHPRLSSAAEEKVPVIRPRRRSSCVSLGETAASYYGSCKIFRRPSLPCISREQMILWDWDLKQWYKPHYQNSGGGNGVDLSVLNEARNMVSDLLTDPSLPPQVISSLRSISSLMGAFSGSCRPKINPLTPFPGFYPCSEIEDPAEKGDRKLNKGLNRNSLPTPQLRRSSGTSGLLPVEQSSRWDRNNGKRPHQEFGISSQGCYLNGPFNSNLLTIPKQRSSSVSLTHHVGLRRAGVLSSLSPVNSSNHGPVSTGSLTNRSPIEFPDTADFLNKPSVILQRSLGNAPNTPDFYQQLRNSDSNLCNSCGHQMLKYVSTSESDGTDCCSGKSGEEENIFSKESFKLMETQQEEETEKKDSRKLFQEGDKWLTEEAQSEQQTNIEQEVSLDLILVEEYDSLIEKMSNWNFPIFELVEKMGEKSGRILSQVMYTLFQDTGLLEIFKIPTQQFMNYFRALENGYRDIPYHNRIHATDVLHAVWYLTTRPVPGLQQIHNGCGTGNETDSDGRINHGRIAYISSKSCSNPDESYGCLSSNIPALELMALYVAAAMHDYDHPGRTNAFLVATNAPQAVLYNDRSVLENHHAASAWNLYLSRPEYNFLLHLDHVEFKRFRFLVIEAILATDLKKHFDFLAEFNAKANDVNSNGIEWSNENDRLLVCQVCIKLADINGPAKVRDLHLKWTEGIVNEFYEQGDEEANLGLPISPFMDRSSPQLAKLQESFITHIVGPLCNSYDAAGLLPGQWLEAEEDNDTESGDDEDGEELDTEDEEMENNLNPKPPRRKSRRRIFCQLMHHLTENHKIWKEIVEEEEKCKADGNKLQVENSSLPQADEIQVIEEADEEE
human full length PDE3A, sequence (Q14432 whole entry): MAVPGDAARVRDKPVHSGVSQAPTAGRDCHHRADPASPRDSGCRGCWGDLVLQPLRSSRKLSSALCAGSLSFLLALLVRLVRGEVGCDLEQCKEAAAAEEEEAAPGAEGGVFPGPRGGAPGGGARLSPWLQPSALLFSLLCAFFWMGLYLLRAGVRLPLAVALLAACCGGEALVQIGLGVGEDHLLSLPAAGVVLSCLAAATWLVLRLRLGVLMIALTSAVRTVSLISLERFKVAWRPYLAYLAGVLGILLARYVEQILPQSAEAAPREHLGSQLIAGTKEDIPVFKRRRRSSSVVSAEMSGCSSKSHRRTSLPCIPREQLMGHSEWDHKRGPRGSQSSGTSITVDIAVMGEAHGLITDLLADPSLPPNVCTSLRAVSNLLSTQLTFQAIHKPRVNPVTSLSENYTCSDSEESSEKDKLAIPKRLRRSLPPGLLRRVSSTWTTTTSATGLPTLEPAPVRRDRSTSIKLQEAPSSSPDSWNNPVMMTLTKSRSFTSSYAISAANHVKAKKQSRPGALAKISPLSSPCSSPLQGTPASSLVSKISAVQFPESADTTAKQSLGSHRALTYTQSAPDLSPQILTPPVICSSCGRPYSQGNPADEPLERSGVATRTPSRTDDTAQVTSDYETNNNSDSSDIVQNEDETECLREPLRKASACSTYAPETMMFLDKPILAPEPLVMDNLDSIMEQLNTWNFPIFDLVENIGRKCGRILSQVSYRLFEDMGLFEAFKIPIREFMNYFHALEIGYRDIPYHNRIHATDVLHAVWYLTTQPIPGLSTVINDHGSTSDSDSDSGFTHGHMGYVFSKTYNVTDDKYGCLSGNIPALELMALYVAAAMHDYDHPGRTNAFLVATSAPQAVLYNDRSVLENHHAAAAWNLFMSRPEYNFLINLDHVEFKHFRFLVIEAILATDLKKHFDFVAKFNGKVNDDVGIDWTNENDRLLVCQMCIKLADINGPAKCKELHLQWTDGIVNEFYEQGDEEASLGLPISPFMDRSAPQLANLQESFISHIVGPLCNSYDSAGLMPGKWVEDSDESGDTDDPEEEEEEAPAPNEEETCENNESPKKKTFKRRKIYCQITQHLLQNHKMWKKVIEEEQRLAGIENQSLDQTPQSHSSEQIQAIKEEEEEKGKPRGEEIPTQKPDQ

SMILES | IC50 (human full length PDE3B) [nM] | IC50 (human full length PDE3A) [nM] | IC50 (HeLa cells) [nM] | IC50 (SK-MEL-3 cells) [nM]
Cc1ccc(-c2ccc(C3=NNC(=O)OC3)cc2C(F)(F)F)cc1O [Example 35, 5-[3′-Hydroxy-4′-methyl-2-(trifluoromethyl)biphenyl-4-yl]-3,6-dihydro-2H-1,3,4-oxadiazin-2-one] | 75 | 79 | 39 | 25
O=C1NN=C(c2ccc(-c3cc(F)ccc3F)c(C(F)(F)F)c2)CO1 [Example 59, 5-[2′,5′-Difluoro-2-(trifluoromethyl)biphenyl-4-yl]-3,6-dihydro-2H-1,3,4-oxadiazin-2-one] | 250 | 150 | 18 | 38
Cc1cccc(-c2ccc(C3=NNC(=O)OC3)cc2F)c1 [Example 87, 5-(2-Fluoro-3′-methylbiphenyl-4-yl)-3,6-dihydro-2H-1,3,4-oxadiazin-2-one] | 230 | 81 | 10 | 32
N#Cc1ccc(-c2ccc(C3=NNC(=O)OC3)cc2F)cc1 [Example 101, 2′-Fluoro-4′-(2-oxo-3,6-dihydro-2H-1,3,4-oxadiazin-5-yl)[1,1′-biphenyl]-4-carbonitrile] | 39 | 28 | 2 | 4
O=C1NN=C(c2ccc(N3CCOCC3)c(C(F)(F)F)c2)CO1 [Example 65, 5-[4-(Morpholin-4-yl)-3-(trifluoromethyl)phenyl]-3,6-dihydro-2H-1,3,4-oxadiazin-2-one] | 30 | 25 | 2 | 3
Cc1ccc(-c2ccc(C3=NNC(=O)OC3)cc2F)cc1F [Example 113, 5-(2,3′-Difluoro-4′-methyl[1,1′-biphenyl]-4-yl)-3,6-dihydro-2H-1,3,4-oxadiazin-2-one] | 215 | 210 | 2 | 6
Cc1cc(C2=NNC(=O)OC2)ccc1-c1cccc(F)c1 [Example 15, 5-(3′-Fluoro-2-methylbiphenyl-4-yl)-3,6-dihydro-2H-1,3,4-oxadiazin-2-one] | 110 | 110 | 8 | 16

Now from value to molecule:

IC50 (human full length PDE3B) [nM] | IC50 (human full length PDE3A) [nM] | IC50 (HeLa cells) [nM] | IC50 (SK-MEL-3 cells) [nM] | SMILES
130 | 140 | 13 | 19 | Cc1ccc(-c2ccc(C3=NNC(=O)O[C@H]3C)cc2C(F)(F)F)cc1F [Example 178, (6S)-5-[3′-Fluoro-4′-methyl-2-(trifluoromethyl)[1,1′-biphenyl]-4-yl]-6-methyl-3,6-dihydro-2H-1,3,4-oxadiazin-2-one]
10 | 19 | 1 | 1 | O=C1NN=C(c2ccc([C@H]3CC[C@H](O)CC3)c(C(F)(F)F)c2)CO1 [Example 272, (trans)-5-{4-[4-hydroxycyclohexyl]-3-(trifluoromethyl)phenyl}-3,6-dihydro-2H-1,3,4-oxadiazin-2-one]
110 | 80 | 1 | 2 | O=C1NN=C(c2ccc(NCC(O)C(F)(F)F)c(C(F)(F)F)c2)CO1 (racemic) [Example 204, (rac)-5-[4-{[3,3,3-trifluoro-2-hydroxypropyl]amino}-3-(trifluoromethyl)phenyl]-3,6-dihydro-2H-1,3,4-oxadiazin-2-one]
120 | 70 | 2 | 4 | O=C1NN=C(c2ccc(C3=CC4CCC3C4)c(C(F)(F)F)c2)CO1 (racemic) [Example 154, (rac)-5-[4-(Bicyclo[2.2.1]hept-2-en-2-yl)-3-(trifluoromethyl)phenyl]-3,6-dihydro-2H-1,3,4-oxadiazin-2-one]
97 | 58 | 8 | 13 | O=C1NN=C(c2ccc(NCC3(O)CCC3)c(C(F)(F)F)c2)CO1 [Example 219, 5-[4-{[(1-Hydroxycyclobutyl)methyl]amino}-3-(trifluoromethyl)phenyl]-3,6-dihydro-2H-1,3,4-oxadiazin-2-one]

Source: patent US11427553B2, “Dihydrooxadiazinones” (Bayer Aktiengesellschaft, priority 2017, dated 2022)
